Assay results from patent publication US11236378B2 (priority 2015, dated 2022).

Tested on: HEK293T cells
Details: human

For `COc1ncc(-c2ccc3nc(N)n(-c4ccc(N5CCOCC5)cc4)c3c2)cc1S(=O)(=O)Nc1ccccc1F` [A1, 5-(2-amino-1-(4-(4-morpholinyl)phenyl)-1H-benzimidazol-6-yl)-N-(2-fluorophenyl)-2-methoxy-3-pyridinesulfonamide], the “concentration that killed most of the cells” value was at least 250 nM.
